{
  "source": "patent US20080119508A1",
  "about": "“Multi-Route Administration Of Immune Response Modifier Compounds” (3M INNOVATIVE PROPERTIES COMPANY, priority 2004, published 2008)",
  "test_system": "mouse colon carcinoma-26 cells (MC26) expressing luciferase",
  "assay": "MC26-luciferase intradermal tumor model, in vivo photon counts (tumor growth index)",
  "parameters": "species or system Balb/c mice",
  "settings": "combination of topical 5% IRM1 (30 microliters at tumor site) and subcutaneous IRM1 10 mg/kg, compared with single routes and vehicles; day 6 results in FIG. 1",
  "procedure": "Mice were divided into five groups: topical vehicle, subcutaneous vehicle (SQ vehicle), IRM1 topical (topical IRM1), IRM1 subcutaneous (SQ IRM1), and IRM1 topical and subcutaneous (topical+SQ IRM1). Eighteen hours after injection of the cells, 30 microliters of vehicle or 5% IRM1 topical formulations, described in Table 3, was applied to the tumor site. Six hours later, mice were injected subcutaneously with 10 millograms per kilogram of IRM1 in a 1 milligram per milliliter IRM1, 0.03M citrate buffered saline solution or a vehicle 0.03M citrate buffered saline solution. On days 1, 5, and 6 mice were anesthetized with vaporized 3% isoflurane and in vivo photon counts of luciferin were measured using a Xenogen IVIS imaging system (Alameda, Calif.) following the manufacturer's protocol. The tumor growth index for each treatment group was calculated by dividing each group's day 5 or day 6 tumor photon counts by their day 1 tumor photon counts.",
  "data": [
    {"smiles": "CCc1nc2c(N)nc3ccccc3c2n1CCCCNS(C)(=O)=O", "note": "[IRM1, N-[4-(4-amino-2-ethyl-1H-imidazo[4,5-c]quinolin-1-yl)butyl]methanesulfonamide]", "values": [
      {"measurement": "tumor growth index (day 5 or day 6 tumor photon counts divided by day 1 tumor photon counts)", "value": "surprising benefit"}
    ]}
  ]
}
